# According to ChEMBL document CHEMBL1777758, “Selective labeling and monitoring pH changes of lysosomes in living cells with fluorogenic pH sensors” (Bioorg Med Chem Lett, 2011):
# How the values were obtained:
# [1] = Dissociation constant, pKa of the compound; assay type: physicochemical
# [2] = Drug uptake in lysosomes of BPAEC at 1 uM after 30 mins by fluorescence microscopy; assay type: ADME, Bos taurus, Lysosome; conditions: cattle, 0.5 h
pKa [1],Drug uptake [2],SMILES
3.2,Active,CC1=CC(C)=[N+]2C1=C(c1ccc(N(C)C)cc1)c1c(C)cc(C)n1[B-]2(F)F
5.2,Active,CCN(CC)c1ccc(C2=C3C(C)=CC(C)=[N+]3[B-](F)(F)n3c(C)cc(C)c32)cc1
3.2,Active,CCN(CC)c1ccc(C2=C3C=CC(CCC(=O)OC)=[N+]3[B-](F)(F)n3c(CCC(=O)OC)ccc32)cc1
3.2,Active,CCN(CCCC(=O)OC)c1ccc(C2=C3C(C)=CC(C)=[N+]3[B-](F)(F)n3c(C)cc(C)c32)cc1
